Assay results as given in US7977477B2, “Benzimidazole derivatives and their use as protein kinase inhibitors” (Astex Therapeutics, Limited, priority 2003, dated 2011).

Key:
[1] = biological target: T1, CDK2/CyclinA (Homo sapiens, UniProt P24941); experiment: CDK2 kinase inhibitory activity (Example 306, Protocol A or B); type: biochemical; conditions: for IC50: protocol of Example 306, read-out: IC50 (CDK inhibitory activity); for inhibition at 0.003 µM: read-out: % inhibition (CDK inhibitory activity)
T1 construct: purchased Upstate Biotechnology
Method: Compounds of the invention were tested for kinase inhibitory activity using either Protocol A or Protocol B.
1.7 μl of active CDK2/CyclinA (Upstate Biotechnology, 10 U/μl) is diluted in assay buffer (250 μl of 10× strength assay buffer (200 mM MOPS pH 7.2, 250 mM β-glycerophosphate, 50 mM EDTA, 150 mM MgCl2), 11.27 μl 10 mM ATP, 2.5 μl 1M DTT, 25 μl 100 mM sodium orthovanadate, 708.53 μl H2O), and 10 μl mixed with 10 μl of histone substrate mix (60 μl bovine histone H1 (Upstate Biotechnology, 5 mg/ml), 940 μl H2O, 35 μCi γ^33P-ATP) and added to 96 well plates along with 5 μl of various dilutions of the test compound in DMSO (up to 2.5%). The reaction is allowed to proceed for 5 hours before being stopped with an excess of ortho-phosphoric acid (30 μl at 2%).
(§1) γ^33P-ATP which remains unincorporated into the histone H1 is separated from phosphorylated histone H1 on a Millipore MAPH filter plate. The wells of the MAPH plate are wetted with 0.5% orthophosphoric acid, and then the results of the reaction are filtered with a Millipore vacuum filtration unit through the wells. Following filtration, the residue is washed twice with 200 μl of 0.5% orthophosphoric acid. Once the filters have dried, 25 μl of Microscint 20 scintillant is added, and then counted on a Packard Topcount for 30 seconds.
The % inhibition of the CDK2 activity is calculated and plotted in order to determine the concentration of test compound required to inhibit 50% of the CDK2 activity (IC50).
Activated CDK2/CyclinA (Brown et al, Nat. Cell Biol., 1, pp 438-443, 1999; Lowe, E. D., et al Biochemistry, 41, pp 15625-15634, 2002) is diluted to 125 pM in 2.5× strength assay buffer (50 mM MOPS pH 7.2, 62.5 mM O-glycerophosphate, 12.5 mM EDTA, 37.5 mM MgCl2, […], 2.5 mM DTT, 2.5 mM sodium orthovanadate, 0.25 mg/ml bovine serum albumin), and 10 fi mixed with 10 A1 of histone substrate mix (60 μl bovine histone H1 (Upstate Biotechnology, 5 mg/ml), 940 μl H2O, 35 μCi γ^33P-ATP) and added to 96 well plates along with 5 μl of various dilutions of the test compound in DMSO (up to 2.5%). The reaction is allowed to proceed for 2 to 4 hours before being stopped with an excess of ortho-phosphoric acid (5 μl at 2%).
as §1, with “20” for “25”

[2] = system: HCT-116 cell line; experiment: Anti-proliferative activity, inhibition of cell growth (Alamar Blue assay); type: cell-based; conditions: Homo sapiens, 72 hours with compound
Method: The anti-proliferative activity of the compounds of the invention has been determined by measuring inhibition of cell growth in the HCT-116 cell line.
The anti-proliferative activities of compounds of the invention were determined by measuring the ability of the compounds to inhibition of cell growth in a number of cell lines. Inhibition of cell growth was measured using the Alamar Blue assay (Nociari, M. M, Shalev, A., Benias, P., Russo, C. Journal of Immunological Methods 1998, 213, 157-167). The method is based on the ability of viable cells to reduce resazurin to its fluorescent product resorufin. For each proliferation assay cells were plated onto 96 well plates and allowed to recover for 16 hours prior to the addition of inhibitor compounds for a further 72 hours. At the end of the incubation period 10% (v/v) Alamar Blue was added and incubated for a further 6 hours prior to determination of fluorescent product at […]. In the case of the non-proliferating cell assay cells were maintained at confluence for 96 hour prior to the addition of inhibitor compounds for a further 72 hours. The number of viable cells was determined by Alamar Blue assay as before. All cell lines were obtained from ECACC (European Collection of cell Cultures).

[3] = biological target: CDK1/cyclinB (Homo sapiens, UniProt P06493); experiment: CDK selectivity assay, CDK1; type: biochemical; conditions: read-out: IC50 against CDK 1
Chain of CDK1/cyclinB (P06493 whole entry): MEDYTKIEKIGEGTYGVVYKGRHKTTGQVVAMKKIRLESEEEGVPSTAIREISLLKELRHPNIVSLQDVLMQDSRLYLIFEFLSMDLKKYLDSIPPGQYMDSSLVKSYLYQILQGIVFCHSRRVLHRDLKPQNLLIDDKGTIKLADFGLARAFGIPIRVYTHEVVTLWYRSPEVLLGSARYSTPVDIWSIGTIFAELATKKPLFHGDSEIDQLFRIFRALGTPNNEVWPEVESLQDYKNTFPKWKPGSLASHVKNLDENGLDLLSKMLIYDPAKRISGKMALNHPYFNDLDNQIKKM
Chain of CDK1/cyclinB (P14635 whole entry partner): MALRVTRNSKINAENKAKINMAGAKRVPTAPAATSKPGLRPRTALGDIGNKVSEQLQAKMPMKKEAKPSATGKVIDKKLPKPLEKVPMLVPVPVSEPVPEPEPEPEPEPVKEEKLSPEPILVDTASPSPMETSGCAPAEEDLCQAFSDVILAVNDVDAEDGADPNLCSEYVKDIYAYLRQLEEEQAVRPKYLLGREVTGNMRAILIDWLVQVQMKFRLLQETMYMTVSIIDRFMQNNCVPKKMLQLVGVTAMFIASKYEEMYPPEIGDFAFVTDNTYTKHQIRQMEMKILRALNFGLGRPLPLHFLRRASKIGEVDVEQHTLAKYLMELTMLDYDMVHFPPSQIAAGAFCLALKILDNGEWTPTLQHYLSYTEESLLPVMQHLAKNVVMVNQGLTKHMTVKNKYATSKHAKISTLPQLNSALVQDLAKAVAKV
Method: (§2) Compounds of the invention were tested for kinase inhibitory activity against a number of different kinases using the general protocol described in Example 129, but modified as set out below.
(§3) Kinases are diluted to a 10× working stock in 20 mM MOPS pH 7.0, 1 mM EDTA, 0.1% γ-mercaptoethanol, 0.01% Brij-35, 5% glycerol, 1 mg/ml BSA. One unit equals the incorporation of 1 nmol of phosphate per minute into 0.1 mg/ml histone H1, or CDK7 substrate peptide at […] with a final ATP concentration of 100 uM.
(§4) The substrate for all the CDK assays (except CDK7) is histone H1, diluted to 10× working stock in 20 mM MOPS pH 7.4 prior to use. The substrate for CDK7 is a specific peptide diluted to 10× working stock in deionised water.
(§5) Assay Procedure for CDK1/cyclinB, CDK2/cyclinA. CDK2/cyclinE, CDK3/cyclinE, CDK5/p35. CDK6/cyclinD3:
(§6) In a final reaction volume of 25 μl, the enzyme (5-10 mU) is incubated with 8 mM MOPS pH 7.0, 0.2 mM EDTA, 0.1 mg/ml histone H1, 10 mM MgAcetate and [γ-^33P-ATP] (specific activity approx 500 cpm/pmol, concentration as required). The reaction is initiated by the addition of Mg^2+ [γ-^33P-ATP]. After incubation for 40 minutes at room temperature the reaction is stopped by the addition of 5 μl of a 3% phosphoric acid solution. 10 ml of the reaction is spotted onto a P30 filter mat and washed 3 times for 5 minutes in 75 mM phosphoric acid and once in methanol prior to drying and counting.

[4] = biological target: CDK3/cyclinE (Homo sapiens, UniProt Q00526); experiment: CDK selectivity assay, CDK3; type: biochemical; conditions: read-out: IC50 against CDK 3
Chain of CDK3/cyclinE (Q00526 whole entry): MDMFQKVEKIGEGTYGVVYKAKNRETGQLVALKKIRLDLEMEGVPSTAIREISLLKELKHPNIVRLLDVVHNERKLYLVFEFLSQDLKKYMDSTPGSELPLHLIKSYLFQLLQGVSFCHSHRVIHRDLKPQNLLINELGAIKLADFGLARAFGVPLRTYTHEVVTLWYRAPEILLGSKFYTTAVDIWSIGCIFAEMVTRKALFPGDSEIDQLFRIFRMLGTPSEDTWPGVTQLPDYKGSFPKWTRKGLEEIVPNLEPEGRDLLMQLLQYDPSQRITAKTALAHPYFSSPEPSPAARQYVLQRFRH
Chain of CDK3/cyclinE (P24864 whole entry partner): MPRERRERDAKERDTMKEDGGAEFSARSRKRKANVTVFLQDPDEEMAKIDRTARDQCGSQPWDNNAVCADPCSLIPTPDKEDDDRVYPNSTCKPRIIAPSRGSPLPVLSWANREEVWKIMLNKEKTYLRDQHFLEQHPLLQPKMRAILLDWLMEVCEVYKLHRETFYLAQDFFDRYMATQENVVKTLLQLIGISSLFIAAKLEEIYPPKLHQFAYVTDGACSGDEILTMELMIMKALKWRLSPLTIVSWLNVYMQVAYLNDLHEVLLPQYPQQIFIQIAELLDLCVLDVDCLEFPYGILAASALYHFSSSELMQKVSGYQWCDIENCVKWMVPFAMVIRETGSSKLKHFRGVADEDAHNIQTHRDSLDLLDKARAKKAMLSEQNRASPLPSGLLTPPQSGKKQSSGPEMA
Method: as §2, §3, §4, §5, §6

[5] = biological target: CDK5/p35 (Homo sapiens, UniProt Q00535); experiment: CDK selectivity assay, CDK5; type: biochemical; conditions: read-out: IC50 against CDK 5
Chain of CDK5/p35 (Q00535 whole entry): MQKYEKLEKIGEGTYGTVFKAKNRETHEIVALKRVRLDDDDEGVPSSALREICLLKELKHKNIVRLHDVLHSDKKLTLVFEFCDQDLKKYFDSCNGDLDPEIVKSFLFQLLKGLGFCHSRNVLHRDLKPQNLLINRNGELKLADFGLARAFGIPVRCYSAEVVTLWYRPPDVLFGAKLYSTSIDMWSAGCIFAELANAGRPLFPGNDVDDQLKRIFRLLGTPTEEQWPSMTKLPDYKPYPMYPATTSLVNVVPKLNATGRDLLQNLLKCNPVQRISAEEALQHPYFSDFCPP
Chain of CDK5/p35 (Q15078 whole entry partner): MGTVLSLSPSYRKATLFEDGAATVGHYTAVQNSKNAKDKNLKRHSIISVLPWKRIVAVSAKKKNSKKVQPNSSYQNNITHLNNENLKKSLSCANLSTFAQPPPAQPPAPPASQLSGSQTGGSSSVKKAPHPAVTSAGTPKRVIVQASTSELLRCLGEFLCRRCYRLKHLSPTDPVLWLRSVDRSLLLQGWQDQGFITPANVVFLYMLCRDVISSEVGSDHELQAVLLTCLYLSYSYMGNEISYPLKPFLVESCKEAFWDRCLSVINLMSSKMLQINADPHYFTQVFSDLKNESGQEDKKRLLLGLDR
Method: as §2, §3, §4, §5, §6

[6] = biological target: GSK3β (human) (Homo sapiens, UniProt P49841); experiment: Inhibitory activity against glycogen synthase kinase-3 (GSK-3); type: biochemical; conditions: read-out: IC50 against GSK30
Chain of GSK3β (human) (P49841 whole entry): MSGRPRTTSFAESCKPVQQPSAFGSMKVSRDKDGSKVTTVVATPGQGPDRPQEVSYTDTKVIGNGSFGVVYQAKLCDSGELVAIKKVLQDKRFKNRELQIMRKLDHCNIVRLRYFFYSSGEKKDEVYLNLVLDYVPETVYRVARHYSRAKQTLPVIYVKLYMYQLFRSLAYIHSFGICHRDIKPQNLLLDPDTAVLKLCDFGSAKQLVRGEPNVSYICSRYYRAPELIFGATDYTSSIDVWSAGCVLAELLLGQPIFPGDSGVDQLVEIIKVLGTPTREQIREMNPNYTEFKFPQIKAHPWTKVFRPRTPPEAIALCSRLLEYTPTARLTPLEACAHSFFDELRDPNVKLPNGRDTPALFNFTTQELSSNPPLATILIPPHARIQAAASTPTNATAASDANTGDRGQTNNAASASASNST
Method: GSK3β (human) is diluted to a 10× working stock in 50 mM Tris pH 7.5, 0.1 mM EGTA, 0.1 mM sodium vanadate, 0.1% β-mercaptoethanol, 1 mg/ml BSA. One unit equals the incorporation of 1 nmol of phosphate per minute phospho-glycogen synthase peptide 2 per minute.
as §6, with “GSK3β” for “the enzyme”, “MOPS” for “MOPS pH”, “20 μM […](p)EDEEE (phospho GS2 peptide),” for “0.1 mg/ml histone H1,”, “Mg^2+[γ-^33P-ATP].” for “Mg^2+ [γ-^33P-ATP].”, “μl” for “ml”, “50” for “75”

| Structure (SMILES) | IC50 [3] | IC50 [4] | IC50 [5] | inhibition at 0.003 µM [1] | other results |
| --- | --- | --- | --- | --- | --- |
| O=C(Nc1c[nH]nc1-c1nc2ccccc2[nH]1)c1ccccc1 [Compound A, reference compound] | – | – | – | – | IC50 [1]: 96.7 nM |
| Cc1ccc(C(=O)Nc2c[nH]nc2-c2nc3cc(C)c(C)cc3[nH]2)cc1 [Compound B, reference compound] | – | – | – | – | IC50 [1]: 3000 nM; IC50 [2]: 5700 nM |
| O=C(Nc1c[nH]nc1-c1nc2ccccc2[nH]1)c1c(F)cccc1F [Example 6, N-[3-(1H-Benzimidazol-2-yl)-1H-pyrazol-4-yl]-2,6-difluoro-benzamide] | < 1000 nM | < 1000 nM | < 1000 nM | – | IC50 [1]: 4.8 nM; IC50 [6]: < 1000 nM |
| O=C(Nc1c[nH]nc1-c1nc2c(CN3CCOCC3)cccc2[nH]1)c1c(F)cccc1F [Example 12, 2,6-Difluoro-N-[3-(4-morpholin-4-yl-methyl-1H-benzimidazol-2-yl)-1H-pyrazol-4-yl]-benzamide] | < 1000 nM | < 1000 nM | < 1000 nM | – | IC50 [6]: < 1000 nM |
| CN1CCN(Cc2cccc3[nH]c(-c4n[nH]cc4NC(=O)c4c(F)cccc4F)nc23)CC1 [Example 13, 2,6-Difluoro-N-[3-(N-methyl-piperazinyl-4-ylmethyl-1H-benzimidazol-2-yl)-1H-pyrazol-4-yl]-benzamide] | < 1000 nM | < 1000 nM | < 1000 nM | – | – |
| CC(C)(C)NCc1cccc2[nH]c(-c3n[nH]cc3NC(=O)c3c(F)cccc3F)nc12 [Example 14, N-{3-[4-(tert-Butylamino-methyl)-1H-benzimidazol-2-yl]-1H-pyrazol-4-yl}-2,6-difluoro-benzamide] | < 1000 nM | < 1000 nM | < 1000 nM | – | – |
| CN1CCN(C(=O)c2ccc3[nH]c(-c4n[nH]cc4NC(=O)c4c(F)cccc4F)nc3c2)CC1 [Example 21, 2,6-Difluoro-N-{3-[5-(4-methyl-piperazine-1-carbonyl)-1H-benzimidazol-2-yl]-1H-pyrazol-4-yl}-benzamide] | < 1000 nM | < 1000 nM | < 1000 nM | – | – |
| COc1cc(F)c(C(=O)Nc2c[nH]nc2-c2nc3ccccc3[nH]2)c(F)c1 [Example 41] | < 1000 nM | < 1000 nM | < 1000 nM | – | – |
| O=C(Nc1c[nH]nc1-c1nc2ccccc2[nH]1)c1c(F)cccc1Cl [Example 43] | – | – | – | 52% | – |
| COc1cccc(F)c1C(=O)Nc1c[nH]nc1-c1nc2ccccc2[nH]1 [Example 44] | – | – | – | 57% | – |
| O=C(Nc1c[nH]nc1-c1nc2ccccc2[nH]1)c1c(F)cc(F)cc1F [Example 56] | – | – | – | 58% | – |
| Cc1cccc(Cl)c1C(=O)Nc1c[nH]nc1-c1nc2ccccc2[nH]1 [Example 57] | – | – | – | 41% | – |
| O=C(Nc1c[nH]nc1-c1nc2ccccc2[nH]1)c1c(Cl)cccc1Cl [Example 59] | – | – | – | 67% | – |
| Cc1cc2nc(-c3n[nH]cc3NC(=O)c3c(F)cccc3F)[nH]c2cc1C [Example 73] | – | – | – | – | IC50 [1]: 4.6 nM; IC50 [2]: 490 nM |
